Source: ChEMBL document CHEMBL5131467, “Multivalent peptide dendrimers inhibit the fusion of viral-cellular membranes and the cellular NF-κB signaling pathway” (Eur J Med Chem, 2022)
Where a SMILES comes first, the peptide text is derived from it. Bridges are numbered along the chain shown (N, C = ends). Roman numbers before positions name the chains, in order. Side-chain parts run from the residue outwards. [ ]: non-standard residue; d: D form. The star is where a group is joined. ξ: configuration not given here. Phenylacetyl(4-Ph) = O=C(Cc1ccc(-c2ccccc2)cc1)*; Fmoc = O=C(OCC1c2ccccc2-c2ccccc21)*; Palmitoyl = CCCCCCCCCCCCCCCC(=O)*; ξW = NC(Cc1c[nH]c2ccccc12)C(=O)O; Lauroyl = CCCCCCCCCCCC(=O)*; Nonanoyl = CCCCCCCCC(=O)*; Octanoyl = CCCCCCCC(=O)*; ξK = NCCCCC(N)C(=O)O

Legend:
[1] = Cytotoxicity against MDCK cells incubated for 1 hr by MTT assay; type: toxicity, cell-based, Canis lupus familiaris; settings: dog
[2] = Cytotoxicity against MDCK cells by CCK-8 assay; type: toxicity, cell-based, Canis lupus familiaris; settings: dog
Influenza A virus [3] = assay: Antiviral activity against Influenza A virus (A/Puerto Rico/8/1934(H1N1)) infected in MDCK cells assessed as reduction in virus induced cytopathic effect pre-treated with virus followed by cell infection for 1 hr by MTT assay; type: functional, organism-based
Influenza A virus [4] = assay: Antiviral activity against Influenza A virus (A/Puerto Rico/8/1934(H1N1)) infected in MDCK cells assessed as reduction in virus induced cytopathic effect during infection incubated for 1 hr by MTT assay; type: functional, organism-based
Influenza A virus [5] = assay: Antiviral activity against Influenza A virus (A/Puerto Rico/8/1934(H1N1)) infected in MDCK cells assessed as reduction in virus induced cytopathic effect after infection incubated for 1 hr by MTT assay; type: functional, organism-based
[6] = Selectivity index, ratio of CC50 for MDCK cells to IC50 antiviral activity against Influenza A virus (A/Puerto Rico/8/1934(H1N1)) infected in MDCK cells assessed as reduction in virus induced cytopathic effect pre-treated with virus; type: toxicity, cell-based; settings: dog, read-out: Selectivity Index
Influenza A virus [7] = assay: Antiviral activity against Influenza A virus (A/Puerto Rico/8/1934(H1N1)) infected in MDCK cells assessed as reduction in virus induced cytopathic effect pretreated with compound incubated for 1 hrs by MTT assay; type: functional, organism-based

Row | SMILES | CC50 at 1 h [1] | CC50 [2] | IC50 (Influenza A virus [3]) | IC50 (Influenza A virus [4]) | IC50 (Influenza A virus [5]) | selectivity ratio [6] | IC50 (Influenza A virus [7])
1 | NCCCC[C@H](NC(=O)[C@H](Cc1c[nH]c2ccccc12)NC(=O)[C@H](CCCCN)NC(=O)[C@H](CCCCN)NC(=O)OCC1c2ccccc2-c2ccccc21)C(=O)O (Fmoc-KKWK-OH) | > 200000 nM | 200000 nM | 4020 nM | – | – | – | –
2 | NCCCC[C@H](NC(=O)OCC1c2ccccc2-c2ccccc21)C(=O)N[C@@H](Cc1c[nH]c2ccccc12)C(=O)N[C@@H](CCCCN)C(=O)N[C@@H](CCCCN)C(=O)NCCCC[C@H](NC(=O)[C@H](CCCCN)NC(=O)[C@H](CCCCN)NC(=O)[C@H](Cc1c[nH]c2ccccc12)NC(=O)[C@H](CCCCN)NC(=O)OCC1c2ccccc2-c2ccccc21)C(=O)NCCCC[C@H](NC(=O)[C@H](CCCCNC(=O)[C@H](CCCCN)NC(=O)[C@H](CCCCN)NC(=O)[C@H](Cc1c[nH]c2ccccc12)NC(=O)[C@H](CCCCN)NC(=O)OCC1c2ccccc2-c2ccccc21)NC(=O)[C@H](CCCCN)NC(=O)[C@H](CCCCN)NC(=O)[C@H](Cc1c[nH]c2ccccc12)NC(=O)[C@H](CCCCN)NC(=O)OCC1c2ccccc2-c2ccccc21)C(=O)NCC(=O)O (I: Fmoc-KWKKK([Lys-Lys-Trp-Lys-Fmoc])KG-OH / II: Fmoc-KWKKK([Lys-Lys-Trp-Lys-Fmoc]); amide I:6-II:C) | 11700 nM | – | 620 nM | 1160 nM | 5000 nM | 18.8 | 470 nM
3 | NCCCC[C@H](NC(=O)[C@H](Cc1c[nH]c2ccccc12)NC(=O)[C@H](CCCCN)NC(=O)[C@@H](N)CCCCN)C(=O)NCCCC[C@H](NC(=O)[C@H](CCCCN)NC(=O)[C@H](Cc1c[nH]c2ccccc12)NC(=O)[C@H](CCCCN)NC(=O)[C@@H](N)CCCCN)C(=O)NCCCC[C@H](NC(=O)[C@H](CCCCNC(=O)[C@H](CCCCN)NC(=O)[C@H](Cc1c[nH]c2ccccc12)NC(=O)[C@H](CCCCN)NC(=O)[C@@H](N)CCCCN)NC(=O)[C@H](CCCCN)NC(=O)[C@H](Cc1c[nH]c2ccccc12)NC(=O)[C@H](CCCCN)NC(=O)[C@@H](N)CCCCN)C(=O)NCC(=O)O (I: H-KKWKK([Lys-Trp-Lys-Lys])KG-OH / II: H-KKWKK([Lys-Trp-Lys-Lys]); amide I:6-II:C) | 150000 nM | – | > 5000 nM | > 5000 nM | – | – | > 10000 nM
4 | CCCCCCCCCCCC(=O)N[C@@H](CCCCN)C(=O)N[C@@H](CCCCN)C(=O)N[C@@H](Cc1c[nH]c2ccccc12)C(=O)N[C@@H](CCCCN)C(=O)NCCCC[C@H](NC(=O)[C@H](CCCCN)NC(=O)[C@H](Cc1c[nH]c2ccccc12)NC(=O)[C@H](CCCCN)NC(=O)[C@H](CCCCN)NC(=O)CCCCCCCCCCC)C(=O)NCCCC[C@H](NC(=O)[C@H](CCCCNC(=O)[C@H](CCCCN)NC(=O)[C@H](Cc1c[nH]c2ccccc12)NC(=O)[C@H](CCCCN)NC(=O)[C@H](CCCCN)NC(=O)CCCCCCCCCCC)NC(=O)[C@H](CCCCN)NC(=O)[C@H](Cc1c[nH]c2ccccc12)NC(=O)[C@H](CCCCN)NC(=O)[C@H](CCCCN)NC(=O)CCCCCCCCCCC)C(=O)NCC(=O)O (I: Lauroyl-KKWKK([Lys-Trp-Lys-Lys-Lauroyl])KG-OH / II: Lauroyl-KKWKK([Lys-Trp-Lys-Lys-Lauroyl]); amide I:6-II:C) | 5470 nM | – | 280 nM | 430 nM | > 5000 nM | 19.7 | 310 nM
5 | CCCCCCCCCCCC(=O)N[C@@H](CCCCN)C(=O)N[C@@H](Cc1c[nH]c2ccccc12)C(=O)N[C@@H](CCCCN)C(=O)N[C@@H](CCCCN)C(=O)NCCCC[C@H](NC(=O)[C@H](CCCCN)NC(=O)[C@H](CCCCN)NC(=O)[C@H](Cc1c[nH]c2ccccc12)NC(=O)[C@H](CCCCN)NC(=O)CCCCCCCCCCC)C(=O)NCCCC[C@H](NC(=O)[C@H](CCCCNC(=O)[C@H](CCCCN)NC(=O)[C@H](CCCCN)NC(=O)[C@H](Cc1c[nH]c2ccccc12)NC(=O)[C@H](CCCCN)NC(=O)CCCCCCCCCCC)NC(=O)[C@H](CCCCN)NC(=O)[C@H](CCCCN)NC(=O)[C@H](Cc1c[nH]c2ccccc12)NC(=O)[C@H](CCCCN)NC(=O)CCCCCCCCCCC)C(=O)NCC(=O)O (I: Lauroyl-KWKKK([Lys-Lys-Trp-Lys-Lauroyl])KG-OH / II: Lauroyl-KWKKK([Lys-Lys-Trp-Lys-Lauroyl]); amide I:6-II:C) | 1880 nM | – | 340 nM | 170 nM | > 5000 nM | 5.5 | 380 nM
6 | CCCCCCCCC(=O)NC(CCCCN)C(=O)NC(Cc1c[nH]c2ccccc12)C(=O)NC(CCCCN)C(=O)NC(CCCCN)C(=O)N[C@@H](CCCCNC(=O)[C@H](CCCCN)NC(=O)[C@H](CCCCN)NC(=O)[C@H](Cc1c[nH]c2ccccc12)NC(=O)[C@H](CCCCN)NC(=O)CCCCCCCC)C(=O)NCCCC[C@H](NC(=O)[C@H](CCCCNC(=O)[C@H](CCCCN)NC(=O)[C@H](CCCCN)NC(=O)[C@H](Cc1c[nH]c2ccccc12)NC(=O)[C@H](CCCCN)NC(=O)CCCCCCCC)NC(=O)[C@H](CCCCN)NC(=O)[C@H](CCCCN)NC(=O)[C@H](Cc1c[nH]c2ccccc12)NC(=O)[C@H](CCCCN)NC(=O)CCCCCCCC)C(=O)NCC(=O)O (stereo partly drawn) (I: Nonanoyl-KWKKK([Lys-Lys-Trp-Lys-Nonanoyl])KG-OH / II: Nonanoyl-[ξK][ξW][ξK][ξK]K([Lys-Lys-Trp-Lys-Nonanoyl]); amide I:6-II:C) | 3480 nM | – | 770 nM | 1480 nM | > 5000 nM | 4.5 | 580 nM
7 | CCCCCCCC(=O)N[C@@H](CCCCN)C(=O)N[C@@H](CCCCN)C(=O)N[C@@H](Cc1c[nH]c2ccccc12)C(=O)N[C@@H](CCCCN)C(=O)NCCCC[C@H](NC(=O)[C@H](CCCCN)NC(=O)[C@H](Cc1c[nH]c2ccccc12)NC(=O)[C@H](CCCCN)NC(=O)[C@H](CCCCN)NC(=O)CCCCCCC)C(=O)NCCCC[C@H](NC(=O)[C@H](CCCCNC(=O)[C@H](CCCCN)NC(=O)[C@H](Cc1c[nH]c2ccccc12)NC(=O)[C@H](CCCCN)NC(=O)[C@H](CCCCN)NC(=O)CCCCCCC)NC(=O)[C@H](CCCCN)NC(=O)[C@H](Cc1c[nH]c2ccccc12)NC(=O)[C@H](CCCCN)NC(=O)[C@H](CCCCN)NC(=O)CCCCCCC)C(=O)NCC(=O)O (I: Octanoyl-KKWKK([Lys-Trp-Lys-Lys-Octanoyl])KG-OH / II: Octanoyl-KKWKK([Lys-Trp-Lys-Lys-Octanoyl]); amide I:6-II:C) | 8560 nM | – | 570 nM | 640 nM | > 5000 nM | 15 | 420 nM
8 | CCCCCCCCCCCCCCCC(=O)N[C@@H](CCCCN)C(=O)N[C@@H](CCCCN)C(=O)N[C@@H](Cc1c[nH]c2ccccc12)C(=O)N[C@@H](CCCCN)C(=O)NCCCC[C@H](NC(=O)[C@H](CCCCN)NC(=O)[C@H](Cc1c[nH]c2ccccc12)NC(=O)[C@H](CCCCN)NC(=O)[C@H](CCCCN)NC(=O)CCCCCCCCCCCCCCC)C(=O)NCCCC[C@H](NC(=O)[C@H](CCCCNC(=O)[C@H](CCCCN)NC(=O)[C@H](Cc1c[nH]c2ccccc12)NC(=O)[C@H](CCCCN)NC(=O)[C@H](CCCCN)NC(=O)CCCCCCCCCCCCCCC)NC(=O)[C@H](CCCCN)NC(=O)[C@H](Cc1c[nH]c2ccccc12)NC(=O)[C@H](CCCCN)NC(=O)[C@H](CCCCN)NC(=O)CCCCCCCCCCCCCCC)C(=O)NCC(=O)O (I: Palmitoyl-KKWKK([Lys-Trp-Lys-Lys-Palmitoyl])KG-OH / II: Palmitoyl-KKWKK([Lys-Trp-Lys-Lys-Palmitoyl]); amide I:6-II:C) | 1580 nM | – | 100 nM | 130 nM | > 5000 nM | – | 140 nM
9 | CCCCCCCCCCCCCCCC(=O)N[C@@H](CCCCN)C(=O)N[C@@H](Cc1c[nH]c2ccccc12)C(=O)N[C@@H](CCCCN)C(=O)N[C@@H](CCCCN)C(=O)NCCCC[C@H](NC(=O)[C@H](CCCCN)NC(=O)[C@H](CCCCN)NC(=O)[C@H](Cc1c[nH]c2ccccc12)NC(=O)[C@H](CCCCN)NC(=O)CCCCCCCCCCCCCCC)C(=O)NCCCC[C@H](NC(=O)[C@H](CCCCNC(=O)[C@H](CCCCN)NC(=O)[C@H](CCCCN)NC(=O)[C@H](Cc1c[nH]c2ccccc12)NC(=O)[C@H](CCCCN)NC(=O)CCCCCCCCCCCCCCC)NC(=O)[C@H](CCCCN)NC(=O)[C@H](CCCCN)NC(=O)[C@H](Cc1c[nH]c2ccccc12)NC(=O)[C@H](CCCCN)NC(=O)CCCCCCCCCCCCCCC)C(=O)NCC(=O)O (I: Palmitoyl-KWKKK([Lys-Lys-Trp-Lys-Palmitoyl])KG-OH / II: Palmitoyl-KWKKK([Lys-Lys-Trp-Lys-Palmitoyl]); amide I:6-II:C) | 670 nM | – | 190 nM | 170 nM | > 5000 nM | – | 170 nM
10 | NCCCC[C@H](NC(=O)Cc1ccc(-c2ccccc2)cc1)C(=O)N[C@@H](CCCCN)C(=O)N[C@@H](Cc1c[nH]c2ccccc12)C(=O)N[C@@H](CCCCN)C(=O)NCCCC[C@H](NC(=O)[C@H](CCCCN)NC(=O)[C@H](Cc1c[nH]c2ccccc12)NC(=O)[C@H](CCCCN)NC(=O)[C@H](CCCCN)NC(=O)Cc1ccc(-c2ccccc2)cc1)C(=O)NCCCC[C@H](NC(=O)[C@H](CCCCNC(=O)[C@H](CCCCN)NC(=O)[C@H](Cc1c[nH]c2ccccc12)NC(=O)[C@H](CCCCN)NC(=O)[C@H](CCCCN)NC(=O)Cc1ccc(-c2ccccc2)cc1)NC(=O)[C@H](CCCCN)NC(=O)[C@H](Cc1c[nH]c2ccccc12)NC(=O)[C@H](CCCCN)NC(=O)[C@H](CCCCN)NC(=O)Cc1ccc(-c2ccccc2)cc1)C(=O)NCC(=O)O (I: {Phenylacetyl(4-Ph)}-KKWKK([Lys-Trp-Lys-Lys-Phenylacetyl(4-Ph)])KG-OH / II: {Phenylacetyl(4-Ph)}-KKWKK([Lys-Trp-Lys-Lys-Phenylacetyl(4-Ph)]); amide I:6-II:C) | 19300 nM | – | 190 nM | 200 nM | – | 103 | 170 nM
